Laboratory results as given in patent US8680145B1, “Compositions and methods for treatment of fear of medical procedures” (priority 2013, dated 2014).

Legend:
[1] = tested on: subject with dental phobia; assay: Replacement of an aged metal filling in the same subject after proglumide (Example 2); type: in vivo, human; conditions: capsule 200 mg proglumide 90 minutes prior; local anesthetic given by dentist
Experimental: Proglumide was obtained from commercial suppliers and/or pharmacies, and loaded into capsules. The same subject as in Example 1 returned to the dentist five days after the dental checkup of Example 1 in order to replace an aged metal filling. Again, proglumide was administered to the subject in advance of the appointment. […] The dentist administered a local anesthetic (e.g., lidocaine) painkiller as part of the procedure for replacing the filling. The residual discomfort following the procedure, including after the numbness wore off, was mild.

[2] = tested on: subject with dental phobia; assay: Routine dental checkup (cleaning and examination) of a subject with dental phobia after proglumide (Example 1); type: in vivo, human
Description: Proglumide was obtained from commercial suppliers and/or pharmacies, and loaded into capsules. A subject with dental phobia, who had not been to a dentist in many years, agreed to undergo a routine dental checkup visit (cleaning and examination), and to take proglumide prior to the dental visit. […] Furthermore, the subject was willing to return for a follow-up visit within one week in order to replace an aged filling, a procedure that was not deemed urgent and easily could have been delayed.

human patients = conditions: cited from earlier work
rats = conditions: opiate-naïve and morphine-tolerant rats (Watkins 1985); cited from earlier work
[3] = cited from earlier work
[4] = chronic administration (Kellstein 1990); cited from earlier work

In the case of `CCCN(CCC)C(=O)C(CCC(=O)O)NC(=O)c1ccccc1` (stereo not shown) [proglumide, Proglumide], the “Residual discomfort following the procedure, including after the numbness wore off” value [1] is reported as “mild”, the Total discomfort ([2]; capsule 100 mg proglumide ninety minutes prior to dental appointment) is reported as “low enough that the subject would be willing to return to a regular dental checkup schedule” and the “Subject-reported pain during calculus removal” value ([2]; capsule 100 mg proglumide ninety minutes prior to dental appointment, relative to previous dental visits without proglumide) is reported as “substantially reduced”. The “Post-checkup pain (tender gums, sensitivity while chewing)” value ([2]; capsule 100 mg proglumide ninety minutes prior, relative to after previous dental checkups) was “significantly reduced”, the “Augmentation of morphine analgesia, treatment vs control groups” value (human patients; cancer pain management (Bernstein 1998) and post-operative patients (Lehmann 1989)) was “no difference” and the “Analgesic efficacy of morphine” value (human patients; human patients with chronic pain (McCleane 1998)) was “enhances”. The Morphine analgesia (rats) was “potentiates”, the Placebo analgesia ([3]; Benedetti 1995) was “enhance” and the Nocebo hyperalgesia ([3]; Benedetti 2006) was “block”. For the same compound, the “Efficacy as a long-term adjunct to opiate treatment for chronic pain” value [4] was “ineffective”.
